Assay results published in ChEMBL document CHEMBL6087386, “Radioprotective effectiveness of a novel delta-tocotrienol prodrug on mouse hematopoietic system against 60Co gamma-ray irradiation through inducing granulocyte-colony stimulating factor production” (Eur J Med Chem, 2024).
Activity calls are given as the source filed them. No cut-off for these calls is given here.

Columns and labels:
[1] = Cmax in ICR mouse at 100 mg/kg, iv measured upto 24 hrs by LC-MS/MS analysis; type: ADME, organism-based; settings: in vivo
[2] = system: Mus musculus; assay: Radioprotective activity in C57BL/6J mouse assessed as survival rate at 100 mg/kg, sc preincubated with compound for 24 hrs followed by total body irradiation with 8.5 Gy and measured after 30 days by Kaplan-meier plot analysis; type: functional; settings: time 31 day
[3] = Bioavailability in ICR mouse at 100 mg/kg, sc measured upto 24 hrs by LC-MS/MS analysis; type: ADME, organism-based; settings: in vivo
[4] = system: Mus musculus; assay: Radioprotective activity in C57BL/6J mouse assessed as increase in neutrophils at 100 mg/kg, sc preincubated with compound for 24 hrs followed by total body irradiation with 6.5 Gy and measured after 30 days; type: functional, organism-based; settings: time 31.0 day
[5] = system: Mus musculus; assay: Induction of G-CSF production in C57BL/6J mouse model at 100 mg/kg, sc measured for 24 hrs by ELISA analysis; type: functional, organism-based
[6] = system: Mus musculus; assay: Radioprotective activity in C57BL/6J mouse assessed as increase in RBC count at 100 mg/kg, sc preincubated with compound for 24 hrs followed by total body irradiation with 6.5 Gy and measured after 30 days; type: functional, organism-based; settings: time 31.0 day
[7] = system: Mus musculus; assay: Radioprotective activity in C57BL/6J mouse assessed as increase in number of LSK cells at 100 mg/kg, sc preincubated with compound for 24 hrs followed by total body irradiation with 6.5 Gy and measured after 30 days; type: functional, organism-based; settings: time 31.0 day
[8] = MRT (0 to t) in ICR mouse at 100 mg/kg, iv measured upto 24 hrs by LC-MS/MS analysis; type: ADME, organism-based; settings: in vivo
[9] = Clearance in ICR mouse at 100 mg/kg, iv measured upto 24 hrs by LC-MS/MS analysis; type: ADME, organism-based; settings: in vivo
[10] = Tmax in ICR mouse at 100 mg/kg, iv measured upto 24 hrs by LC-MS/MS analysis; type: ADME, organism-based; settings: in vivo
[11] = system: Mus musculus; assay: Radioprotective activity in C57BL/6J mouse assessed as increase in spleen coefficient at 100 mg/kg, sc preincubated with compound for 24 hrs followed by total body irradiation with 6.5 Gy and measured after 10 days; type: functional, organism-based; settings: time 11.0 day
[12] = Volume of distribution at steady state in ICR mouse at 100 mg/kg, iv measured upto 24 hrs by LC-MS/MS analysis; type: ADME, organism-based; settings: ICR, in vivo, read-out: Vdss
[13] = system: Mus musculus; assay: Radioprotective activity in C57BL/6J mouse assessed as increase in platelets count at 100 mg/kg, sc preincubated with compound for 24 hrs followed by total body irradiation with 6.5 Gy and measured after 30 days; type: functional, organism-based; settings: time 31.0 day
[14] = system: Mus musculus; assay: Radioprotective activity in C57BL/6J mouse assessed as splenomegaly at 100 mg/kg, sc preincubated with compound for 24 hrs followed by total body irradiation with 6.5 Gy and measured after 10 days; type: functional, organism-based; settings: time 11.0 day
[15] = system: Mus musculus; assay: Radioprotective activity in C57BL/6J mouse assessed as increase in WBC count at 100 mg/kg, sc preincubated with compound for 24 hrs followed by total body irradiation with 6.5 Gy and measured after 30 days; type: functional, organism-based; settings: time 31.0 day
[16] = Tmax in ICR mouse at 100 mg/kg, sc measured upto 24 hrs by LC-MS/MS analysis; type: ADME, organism-based; settings: in vivo
[17] = Half life in ICR mouse at 100 mg/kg, iv measured upto 24 hrs by LC-MS/MS analysis; type: ADME, organism-based; settings: in vivo
[18] = system: Mus musculus; assay: Radioprotective activity in C57BL/6J mouse assessed as increase in number of LK cells at 100 mg/kg, sc preincubated with compound for 24 hrs followed by total body irradiation with 6.5 Gy and measured after 30 days; type: functional, organism-based; settings: time 31.0 day
[19] = system: Mus musculus; assay: Radioprotective activity in C57BL/6J mouse assessed as survival rate at 100 mg/kg, sc preincubated with compound for 24 hrs followed by total body irradiation with 8.5 Gy and measured after 20 days by Kaplan-meier plot analysis; type: functional; settings: light or radiation study, 504 h, time 21 day
[20] = MRT (0 to t) in ICR mouse at 100 mg/kg, sc measured upto 24 hrs by LC-MS/MS analysis; type: ADME, organism-based; settings: in vivo
[21] = system: Mus musculus; assay: Radioprotective activity in C57BL/6J mouse assessed as increase in multipotent progenitor frequency in LSK compartment at 100 mg/kg, sc preincubated with compound for 24 hrs followed by total body irradiation with 6.5 Gy and measured after 30 days; type: functional, organism-based; settings: time 31.0 day
[22] = Cmax in ICR mouse at 100 mg/kg, sc measured upto 24 hrs by LC-MS/MS analysis; type: ADME, organism-based; settings: in vivo
[23] = system: Mus musculus; assay: Radioprotective activity in C57BL/6J mouse assessed as increase in platelet count at 100 mg/kg, sc preincubated with compound for 24 hrs followed by total body irradiation with 6.5 Gy and measured on day 10; type: functional, organism-based; settings: time 11.0 day
[24] = system: Mus musculus; assay: Radioprotective activity in C57BL/6J mouse assessed as increase in neutrophils at 100 mg/kg, sc preincubated with compound for 24 hrs followed by total body irradiation with 6.5 Gy and measured on day 7; type: functional, organism-based; settings: time 8.0 day
[25] = system: Mus musculus; assay: Radioprotective activity in C57BL/6J mouse assessed as increase in number of total bone marrow cells at 100 mg/kg, sc preincubated with compound for 24 hrs followed by total body irradiation with 6.5 Gy and measured after 30 days; type: functional, organism-based; settings: time 31.0 day
[26] = system: Mus musculus; assay: Radioprotective activity in C57BL/6J mouse assessed as increase in long term hematopoietic stem cell frequency in LSK compartment at 100 mg/kg, sc preincubated with compound for 24 hrs followed by total body irradiation with 6.5 Gy and measured after 30 days; type: functional, organism-based; settings: time 31.0 day
[27] = MRT (0 to infinity) in ICR mouse at 100 mg/kg, iv measured upto 24 hrs by LC-MS/MS analysis; type: ADME, organism-based; settings: ICR, in vivo
[28] = system: Mus musculus; assay: Radioprotective activity in C57BL/6J mouse assessed as increase in RBC count at 100 mg/kg, sc preincubated with compound for 24 hrs followed by total body irradiation with 6.5 Gy and measured on day 14; type: functional, organism-based; settings: time 15.0 day

## CC(C)=CCC/C(C)=C/CC/C(C)=C/CC[C@]1(C)CCc2cc(OCCO)cc(C)c2O1
[1]
  Cmax: 8.15 ng/mL
[2]
  Activity: 100%
[3]
  F: 8.3%
[4]
  Activity: Active
[5]
  Activity: Active
[6]
  Activity: Active
[7]
  Activity: Active
[8]
  MRT last at 24 h: 0.67 h
[9]
  CL: 6.3815 mL/min/kg
[10]
  Tmax: 17.3 h
[11]
  Activity: Active
[12]
  Vd: 0.351 L/kg
[13]
  Activity: Active
[14]
  Activity: Active
[15]
  Activity: Active
[16]
  Tmax: 0.67 h
[17]
  half-life: 7.56 h
[18]
  Activity: Active
[19]
  survival at 100 mg/kg: 70%
[20]
  MRT last at 24 h: 12 h
[21]
  Activity: Active
[22]
  Cmax: 1.14 ng/mL
[23]
  Activity: Active
[24]
  Activity: Active
[25]
  Activity: Active
[26]
  Activity: Active
[27]
  MRT inf: 0.92 h
[28]
  Activity: Active
